# Literature values as cited in patent US20240099974A1, “TREATMENT AGENT” (FUJIFILM Corporation, priority 2021, published 2024).
# Conditions: iv; Mould et al., 2002, Ait-Oudhia, Mager and Straubinger 2014
compound,measurement,value
CC[C@@]1(O)C(=O)OCc2c1cc1n(c2=O)Cc2cc3c(CN(C)C)c(O)ccc3nc2-1 [topotecan],clearance in a case where topotecan is intravenously administered,18.6 L/h
